Assay results reported in patent US6492395B1, “Topical formulation of alkyl-, phenyl-pyridone” (Mepha AG, priority 2001, dated 2002).

Assay: Stability test, 6 months storage under standard storage conditions
Format: physicochemical
Description: Stability testing was carried out as above.

Cc1ccc(=O)n(-c2ccccc2)c1 [5-methyl-1-phenyl-2-(1H)-pyridone]
effect on physical stability of emulsions and other colloidal systems: emulsion destabiliser
